In this experiment the test system is Respiratory Syncytial Virus. The experiment is described as follows: In vitro screening for activity against Respiratory Syncytial Virus (MTT tetrazolium colorimetric assay, HeLa cells). In kind it is cell-based. The conditions noted are these: protection against RSV cytopathology in HeLa cells, 7 days after infection; pEC50 = −log of EC50 in molar units. An excerpt: The percent protection against cytopathology caused by viruses (antiviral activity or EC50) achieved by tested compounds and their cytotoxicity (CC50) are both calculated from dose-response curves. The selectivity of the antiviral effect is represented by the selectivity index (SI), calculated by dividing the CC50 (cytotoxic dose for 50% of the cells) by the EC50 (antiviral activity for 50% of the cells). The tables in the above experimental part list the category to which each of the prepared compounds belong. Compounds belonging to activity category “A” have an pEC50 (−log of EC50 when expressed in molar units) equal to or more than 7. Compounds belonging to activity category “B” have a pEC50 value between 6 and 7.
Automated tetrazolium-based […] assays were used for determination of EC50 and CC50 of test compounds. Flat-bottom, 96-well plastic microtiter trays were filled with 180 μl of Eagle's Basal Medium, supplemented with 5% FCS (0% for FLU) and 20 mM Hepes buffer. Subsequently, stock solutions (7.8× final test concentration) of compounds were added in 45 μl volumes to a series of triplicate wells so as to allow simultaneous evaluation of their effects on virus- and mock-infected cells. Five five-fold dilutions were made directly in the microtiter trays using a robot system. Untreated virus controls, and HeLa cell controls were included in each test. Approximately 100 TCID50 of Respiratory Syncytial Virus was added to two of the three rows in a volume of 50 μl. The same volume of medium was added to the third row to measure the cytotoxicity of the compounds at the same concentrations as those used to measure the antiviral activity. After two hours of incubation, a suspension (4×10^5 cells/ml) of HeLa cells was added to all wells in a volume of 50 μl. The cultures were incubated at 37° C. in a 5% CO2 atmosphere. Seven days after infection the cytotoxicity and the antiviral activity was examined spectrophotometrically. To each well of the microtiter tray, 25 μl of a solution of MTT (3-(4,5-dimethylthiazol-2-yl)-2,5-diphenyltetrazolium bromide) was added. The trays were further incubated at 37° C. for 2 hours, after which the medium was removed from each cup. Solubilization of the formazan crystals was achieved by adding 100 μl 2-propanol. Complete dissolution of the formazan crystals were obtained after the trays have been placed on a plate shaker for 10 min. Finally, the absorbances were read in an eight-channel computer-controlled photometer (Multiskan MCC, Flow Laboratories) at two wavelengths (540 and 690 nm). The absorbance measured at 690 nm was automatically subtracted from the absorbance at 540 nm, so as to eliminate the effects of non-specific absorption.
In general terms: Tetrazolium assays rely on reduction of a dye to a coloured formazan, in cell work by metabolically active cells.
In turn, `Cc1ccc(O)c(Cn2c(NC3CCN(C)CC3)nc3ccc(CN4CCOCC4)cc32)n1` [Compound 98] had an Activity of 6.5.

On to `Cc1ccc(O)c(Cn2c(NCCc3ccccc3)nc3ccc(CO)cc32)n1` [Compound 188], for which the Activity was 4.4.

With `CCc1ccccc1NCc1ccc2nc(NC3CCN(C)CC3)n(Cc3nc(C)ccc3O)c2c1` [Compound 8], the Activity stood at 8.4.

On to `Cc1cc(C)cc(NCc2ccc3nc(NC4CCN(C)CC4)n(Cc4nc(C)ccc4O)c3c2)c1` [Compound 3], for which the Activity is listed as 8.6.

In turn, `COc1cc(NCc2ccc3nc(NC4CCN(C)CC4)n(Cc4nc(C)ccc4O)c3c2)cc(OC)c1` [Compound 36] had an Activity of 7.7.

With `Cc1ccc(O)c(Cn2c(NC3CCN(C)CC3)nc3ccc(CNc4c(C)cccc4C)cc32)n1` [Compound 75], the Activity stood at 7.

`Cc1cccc(SCc2ccc3c(c2)nc(NC2CCN(C)CC2)n3Cc2nc(C)ccc2O)c1` [Compound 132]: the Activity is less than 4.

Turning to `Cc1ccc(O)c(Cn2c(NC3CCN(C)CC3)nc3ccc(CN4CCOC(CCO)C4)cc32)n1` (centres unmarked) [Compound 97], the Activity came to 6.6.

Consider `Cc1ccc(O)c(Cn2c(NC3CCN(Cc4ccccc4)CC3)nc3ccc(CNc4cc(Cl)cc(Cl)c4)cc32)n1` [Compound 165], for which the Activity turned out to be 7.1.

Regarding `Cc1ccc(O)c(Cn2c(NC3CCN(C)CC3)nc3ccc(CNc4ccc(C(C)C)cc4)cc32)n1` [Compound 76], the Activity came to 7.

`Cc1ccc(O)c(Cn2c(NC3CCN(CCO)CC3)nc3ccc(CCC#N)cc32)n1` [Compound 161] yielded an Activity of 7.8.

For `CCOC(=O)c1ccc(NCc2ccc3nc(NC4CCN(C)CC4)n(Cc4nc(C)ccc4O)c3c2)cc1` [Compound 54], the Activity is given as 7.4.

Turning to `Cc1ccc(O)c(Cn2c(NC3CCN(CCC(N)=O)CC3)nc3ccc(CCc4ccccc4)cc32)n1` [Compound 163], the Activity was 7.2.

Consider `Cc1ccc(O)c(Cn2c(NC3CCN(C)CC3)nc3ccc(CNc4ccc(Nc5ccccc5)cc4)cc32)n1` [Compound 64], for which the Activity stood at 7.3.

In turn, `CCc1cc(Br)ccc1NCc1ccc2nc(NC3CCN(C)CC3)n(Cc3nc(C)ccc3O)c2c1` [Compound 74] had an Activity of 7.1.

As for `Cc1ccc(O)c(Cn2c(NCCc3ccccc3)nc3ccc(CNc4cc(Cl)cc(Cl)c4)cc32)n1` [Compound 192], the Activity is given as less than 4.

`CCOC(=O)c1ccc2c(c1)nc(NC1CCN(Cc3ccccc3)CC1)n2Cc1nc(C)ccc1O` [Compound 140]: the Activity was less than 4.

Consider `Cc1ccc(O)c(Cn2c(NC3CCN(C)CC3)nc3ccc(CNc4ccccc4CO)cc32)n1` [Compound 7], for which the Activity was determined as 8.4.

As to `Cc1ccc(O)c(Cn2c(NC3CCN(C)CC3)nc3ccc(NC(=O)Cc4ccccc4)cc32)n1` [Compound 107], the Activity came to 6.1.

The molecule `Cc1ccc(O)c(Cn2c(NC3CCN(C)CC3)nc3ccc(C(=O)NCc4ccccn4)cc32)n1` [Compound 134] had an Activity of less than 4.

As for `Cc1ccc(O)c(Cn2c(NC3CCN(C)CC3)nc3cc(C(=O)NCc4ccccn4)ccc32)n1` [Compound 135], the Activity is less than 4.

In turn, `Cc1ccc(O)c(Cn2c(NC3CCN(C)CC3)nc3ccc(CNc4ccccc4)cc32)n1` [Compound 30] registered an Activity of 7.8.

For `CSc1cccc(NCc2ccc3nc(NC4CCN(C)CC4)n(Cc4nc(C)ccc4O)c3c2)c1` [Compound 25], the Activity is 7.9.

Consider `Cc1ccc(/C=C/c2ccc3c(c2)nc(NC2CCN(C)CC2)n3Cc2nc(C)ccc2O)cc1` [Compound 125], for which the Activity is less than 4.

Regarding `Cc1ccc(O)c(Cn2c(NC3CCN(C)CC3)nc3ccc(CN(CCN(C)C)Cc4ccccc4)cc32)n1.Cl` [Compound 59], the Activity came to 7.3.

For `Cc1ccc(O)c(Cn2c(NC3CCN(C)CC3)nc3ccc(CN(CCO)Cc4ccccc4)cc32)n1` [Compound 85], the Activity worked out at 6.8.

The values are drawn from patent US8278455B2, “5- or 6-substituted benzimidazole derivatives as inhibitors of respiratory syncytial virus replication” (Janssen Pharmaceutica N.V., priority 2003, dated 2012).
